Where “and” joins values, the source holds several entries; their conditions need not be identical. Identical values can stand only once. Like-named read-outs stand apart in the source and are kept apart here.
Assays:
[1] = test system: carrageenan-induced paw edema; experiment: Carrageenan-induced paw edema; assay type: in vivo, albino mice
[2] = test system: prostaglandin E2-induced paw edema; experiment: Prostaglandin E2-induced paw edema; assay type: in vivo, mouse
Procedure: It was done by injecting 10% DMSO, a Bradykinin inhibitor (HOE 140) at a dose of 1 mg/kg, a lipoxygenase inhibitor (montelukast) at a dose of 25 mg/kg, an antihistamine at a dose of 100 mg/kg, the tested compound at a dose of 100 mg/kg, or a cyclooxygenase inhibitor (celecoxib) at a dose of 50 mg/kg.

5-LOX enzyme = experiment: 5-LOX activity (5-lipoxygenase inhibition, linoleic acid substrate, absorbance 234 nm); conditions: read-out: IC50 ± SEM 5-LOX
[3] = test system: histamine-induced paw edema; experiment: Histamine-induced paw edema; assay type: in vivo, mouse; conditions: 20 mg/kg, at 3 h
[4] = test system: bradykinin-induced paw edema; experiment: Bradykinin-induced paw edema; assay type: in vivo, mouse; conditions: 20 mg/kg, first hour
Procedure: (§1) It was done by injecting 10% DMSO, a Bradykinin inhibitor (HOE 140) at a dose of 1 mg/kg, a lipoxygenase inhibitor (montelukast) at a dose of 25 mg/kg, an antihistamine at a dose of 100 mg/kg, […], or a cyclooxygenase inhibitor (celecoxib) at a dose of 50 mg/kg.

[5] = test system: leukotriene-induced paw edema; experiment: Leukotriene-induced paw edema; assay type: in vivo, mouse; conditions: for percentage inhibition of leukotriene-induced paw edema: 20 mg/kg
Procedure: as §1

With `CC(=O)Oc1ccccc1C(=O)O` [Aspirin, reference compound] the “Percent inhibition of paw edema” value ([1]; dose 50 mg/kg, 1 h) was 48.52 ± 1.12 %, the “Percent inhibition of paw edema” value ([1]; dose 50 mg/kg, 2 h) was 54.63 ± 1.47 % and the “Percent inhibition of paw edema” value ([1]; dose 50 mg/kg, 3 h) was 55.22 ± 1.38 %. For the same molecule, the “Percent inhibition of paw edema” value ([1]; dose 50 mg/kg, 4 h) was 58.92 ± 1.95 %, the “Percent inhibition of paw edema” value ([1]; dose 50 mg/kg, 5 h) was 59.60 ± 1.52 % and the “Percent inhibition of paw edema” value ([1]; dose 50 mg/kg, 5 h, listed as aspirin) was 59.60%.

For `Cc1ccc(-c2cc(C(F)(F)F)nn2-c2ccc(S(N)(=O)=O)cc2)cc1` [Celecoxib, reference compound], the “reduction of prostaglandin E2-induced paw edema” value ([2]; celecoxib 50 mg/kg, 4th hour after inflammogen) was 88%.

In the case of `Nc1nc(-c2cc(Cl)cs2)c(N2CCNCC2)s1` [Compound 5a], the IC50 (5-LOX enzyme) is reported as 93.15 ± 0.07 µM.

`CCNc1nc(-c2cc(Cl)cs2)c(N2CCNCC2)s1` [Compound 5b] showed an IC50 (5-LOX enzyme) of 98.26 ± 0.08 µM.

`CCNc1nc(-c2cc(Cl)cs2)c(N2CCN(C)CC2)s1` [Compound 5c] gave an IC50 (5-LOX enzyme) of 72.32 ± 0.11 µM.

With `CN1CCN(c2sc(NCc3ccccc3)nc2-c2cc(Cl)cs2)CC1` [Compound 5d] the “Percent inhibition of paw edema” value ([1]; dose 5 mg/kg, 1 h) was 45.47 ± 1.11%, the “Percent inhibition of paw edema” value ([1]; dose 5 mg/kg, 2 h) was 48.10 ± 1.42 % and the “Percent inhibition of paw edema” value ([1]; dose 10 mg/kg, 1 h) was 49.68 ± 1.44%. The “Percent inhibition of paw edema” value ([1]; dose 20 mg/kg, 5 h) was 61.64 ± 1.10%, the “antihistaminic effect (suppression of histamine-induced paw edema)” value [3] was 27.12% and the “inhibition of bradykinin-induced paw swelling” value [4] was 9.20%. The “inhibition of prostaglandin E2-induced paw edema” value ([2]; 20 mg/kg, fourth hour) was 76.56 ± 0.58, the “percentage inhibition of leukotriene-induced paw edema” value (“percentage inhibition” below) ([5]; fifth hour (fifth of five values)) was 59.90 ± 0.68% and the “percentage inhibition” value ([5]; first hour (first of five values)) was 51.80 ± 0.58%. For the same molecule, the “percentage inhibition” value ([5]; fourth hour) was 64.56 ± 0.78%, the “percentage inhibition” value ([5]; second hour (second of five values)) was 55.90 ± 0.66% and the “percentage inhibition” value ([5]; third hour (third of five values)) was 59.46 ± 0.52%. It also gave an IC50 (5-LOX enzyme) of 23.08 ± 0.18 µM.

`Clc1csc(-c2nc(NCc3ccccc3)sc2Nc2ccccc2)c1` [Compound 5e] was tested, and the “Percent inhibition of paw edema” value ([1]; dose 5 mg/kg, 1 h) was 47.70 ± 1.68 %, the “Percent inhibition of paw edema” value ([1]; dose 5 mg/kg, 2 h) was 51.47 ± 1.50 % and the “Percent inhibition of paw edema” value ([1]; dose 5 mg/kg, 3 h) was 54.56 ± 1.34 %. The “Percent inhibition of paw edema” value ([1]; dose 5 mg/kg, 4 h) was 53.35 ± 1.47 %, the “Percent inhibition of paw edema” value ([1]; dose 5 mg/kg, 5 h) was 56.25 ± 1.65 % and the “Percent inhibition of paw edema” value ([1]; dose 10 mg/kg, 1 h) was 52.36 ± 2.26 %. For the same molecule, the “Percent inhibition of paw edema” value ([1]; dose 10 mg/kg, 2 h) was 54.58 ± 2.58 %, the “Percent inhibition of paw edema” value ([1]; dose 10 mg/kg, 3 h) was 57.59 ± 1.59 % and the “Percent inhibition of paw edema” value ([1]; dose 10 mg/kg, 4 h) was 56.78 ± 2.66 %. For the same molecule, the “Percent inhibition of paw edema” value ([1]; dose 10 mg/kg, 5 h) was 62.65 ± 2.79 %, the “Percent inhibition of paw edema” value ([1]; dose 20 mg/kg, 1 h) was 55.29% and 55.29 ± 1.04 % and the “Percent inhibition of paw edema” value ([1]; dose 20 mg/kg, 2 h) was 57.39 ± 1.69 %. For the same molecule, the “Percent inhibition of paw edema” value ([1]; dose 20 mg/kg, 3 h) was 60.76 ± 2.68 %, the “Percent inhibition of paw edema” value ([1]; dose 20 mg/kg, 4 h) was 59.08 ± 1.98 % and the “Percent inhibition of paw edema” value ([1]; dose 20 mg/kg, 5 h) was 64.59% and 64.59 ± 1.49 %. The “antihistaminic effect (suppression of histamine-induced paw edema)” value [3] was 35%, the “inhibition of bradykinin-induced paw swelling” value [4] was 21.30% and the “percentage inhibition” value ([5]; fourth hour) was 69.84%. It also gave an IC50 (5-LOX enzyme; listed as C00005) of 38.45 ± 0.2 µM.

Molecule `CCNc1nc(-c2cc(Cl)cs2)c(Nc2ccccc2)s1` [Compound 5f] has an IC50 (5-LOX enzyme) of 56.21 ± 0.15 µM.

With `C#CCNc1nc(-c2cc(Cl)cs2)c(Nc2ccccc2)s1` [Compound 5g] the IC50 (5-LOX enzyme) was 83.11 ± 0.16 µM.

For `CC(C)(O)c1ccccc1CC[C@@H](SCC1(CC(=O)O)CC1)c1cccc(/C=C/c2ccc3ccc(Cl)cc3n2)c1` [montelukast, reference compound], the “percentage reduction of leukotriene-induced paw edema” value ([5]; montelukast 25 mg/kg, fourth hour) was 72.79 ± 1.10%.

Reference: article PMC10937574, “Modification of 4-(4-chlorothiophen-2-yl)thiazol-2-amine derivatives for the treatment of analgesia and inflammation: synthesis and in vitro, in vivo, and in silico studies” (Frontiers in Pharmacology, 2024)
